Data taken from patent publication US10752588B2 (The Broad Institute, Inc., priority 2014, dated 2020).
Converted amounts (≈) assume the structure as drawn. Like-named read-outs stand apart in the source and are kept apart here.

Columns and labels:
human D2R/β-arrestin [1] = target: T1, human D2R/β-arrestin (Homo sapiens (Human), UniProt P14416); conditions: read-out: β-arrestin Antagonist
human D2R/β-arrestin [2] = target: T1, human D2R/β-arrestin; conditions: read-out: cAMP Antagonist
human D2R/β-arrestin [3] = target: T1, human D2R/β-arrestin; test: β-Arrestin agonist assay (PathHunter); assay type: cell-based; conditions: CHO-K1 cell line expressing human D2R/β-arrestin
Summary of the method: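 Readout follows addition of Buffer:Emerald II:Galactor-Star reagent (19:5:1) to agonist-treated plates, measured as luminescence or fluorescence.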

human D2R/β-arrestin [4] = target: T1, human D2R/β-arrestin; test: Gi/cAMP agonist assay (Lance Ultra cAMP, Forskolin); assay type: cell-based; conditions: CHO-K1 cell line expressing human D2R/β-arrestin
Summary of the method: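 Read-out was Lance Ultra competitive TR-FRET (Eu-cAMP tracer plus ULight-anti-cAMP) following forskolin-induced cAMP production. Before forskolin stimulation, compounds were pin-transferred onto the seeded cells for 10 min at 37 °C.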

[5] = Microsomal stability, mouse
D2 = D2 (Homo sapiens (Human), UniProt P14416); test: D2 radioligand binding assay
human D2R/β-arrestin [6] = target: T1, human D2R/β-arrestin; test: cell-based; conditions: cAMP Antagonist
human D2R/β-arrestin [7] = target: T1, human D2R/β-arrestin; test: cell-based; conditions: β-arrestin Antagonist
[8] = Microsomal stability, rat; assay type: in vitro ADME
Plasma stability, rat = assay type: in vitro ADME
Plasma stability, human = assay type: in vitro ADME
Solubility in PBS = assay type: physicochemical; conditions: aqueous buffer
[9] = Microsomal stability, human; assay type: in vitro ADME
[10] = CHO-K1 cell line expressing human D2R/β-arrestin, quinpirole used as agonist

T1 sequence (P14416 whole entry): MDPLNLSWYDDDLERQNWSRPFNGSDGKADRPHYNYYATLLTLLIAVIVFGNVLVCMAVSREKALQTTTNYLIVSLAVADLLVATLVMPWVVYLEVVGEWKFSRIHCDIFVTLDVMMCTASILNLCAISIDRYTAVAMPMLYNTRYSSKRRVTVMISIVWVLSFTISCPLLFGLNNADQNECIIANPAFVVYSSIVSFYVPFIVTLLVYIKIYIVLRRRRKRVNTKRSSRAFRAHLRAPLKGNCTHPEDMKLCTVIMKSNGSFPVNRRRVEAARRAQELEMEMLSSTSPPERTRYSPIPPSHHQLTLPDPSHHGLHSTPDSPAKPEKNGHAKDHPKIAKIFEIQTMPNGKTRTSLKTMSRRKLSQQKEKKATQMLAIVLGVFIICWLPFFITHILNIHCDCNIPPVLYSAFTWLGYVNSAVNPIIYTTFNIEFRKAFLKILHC
Chain of D2 (P14416 whole entry): as above

Row | IC50 (human D2R/β-arrestin [6]; [10]) [nM] | IC50 (human D2R/β-arrestin [7]; [10]) [nM] | SMILES | IC50 (human D2R/β-arrestin [1]) [nM] | IC50 (human D2R/β-arrestin [2]) [nM] | EC50 (human D2R/β-arrestin [3]) [nM] | EC50 (human D2R/β-arrestin [4]) [nM] | Microsomal Stability: % remaining after 60 minutes [5] | other results
1 |  |  | O=C(NC(c1ccc(Cl)cc1)c1ccccn1)C1CCN(CCOc2ccccc2C(F)(F)F)CC1 (single isomer, unassigned) [Compound 6a] | < 100 | < 100 | > 30000 | > 30000 | m31% | 
2 |  |  | O=C(NC(c1ccc(Cl)cc1)c1ccccn1)C1CCN(CCOc2ccccc2C(F)(F)F)CC1 (single isomer, unassigned) [Compound 6b] | < 100 | < 100 | > 30000 | > 30000 | m2% | 
3 |  |  | COc1cccc(C(NC(=O)C2CCN(CCOc3ccccc3F)CC2)c2ccccn2)c1 (single isomer, unassigned) [Compound 22b, 1-(2-(2-fluorophenoxy)ethyl)-N-((3-methoxyphenyl)(pyridin-2-yl)methyl) piperidine-4-carboxamide] | 100 to 1000 | 100 to 1000 | > 30000 | > 30000 | m12% | 
4 |  |  | CC1(C(=O)NC(c2ccc(F)cc2)c2ccccn2)CCN(CCOc2ccccc2C(F)(F)F)CC1 (single isomer, unassigned) [Compound 70b, N-((4-fluorophenyl)(pyridin-2-yl)methyl)-4-methyl-1-(2-(2-(trifluoromethyl)phenoxy)ethyl) piperidine-4-carboxamide] | 1000 to 10000 | > 30000 | > 30000 | < 100 | m0% | 
5 | 100 to 1000 | 100 to 1000 | COc1cccc(C(c2ccccn2)N(C)CC2CCN(CCOc3ccccc3F)CC2)c1 (single isomer, unassigned) [Compound 77a, N-((1-(2-(2-fluorophenoxy)ethyl)piperidin-4-yl)methyl)-1-(3-methoxyphenyl)-N-methyl-1-(pyridin-2-yl)methanamine] |  |  | > 30000 | 100 to 1000 | m1% | Ki (D2): 100 to 1000 nM
6 | < 100 | 100 to 1000 | O=C(NC(c1ccc2c(c1)OC(F)(F)O2)c1ccccn1)C1CCN(CCOc2ccccc2F)CC1 (single isomer, unassigned) [Compound 94a, N-((2,2-difluorobenzo[d][1,3]dioxol-5-yl)(pyridin-2-yl)methyl)-1-(2-(2-fluorophenoxy)ethyl)piperidine-4-carboxamide] |  |  | > 30000 | > 30000 | m2% | Ki (D2): 100 to 1000 nM
7 | > 30000 | > 30000 | O=C(NC(c1ccc2c(c1)OC(F)(F)O2)c1ccccn1)C1CCN(CCOc2ccccc2F)CC1 (single isomer, unassigned) [Compound 94b, N-((2,2-difluorobenzo[d][1,3]dioxol-5-yl)(pyridin-2-yl)methyl)-1-(2-(2-fluorophenoxy)ethyl)piperidine-4-carboxamide] |  |  | 100 to 1000 | < 100 | m26% | Ki (D2): 100 to 1000 nM
8 |  |  | O=C(NC(c1ccc2c(c1)OCO2)c1ccccn1)C1CCN(CCOc2ccccc2F)CC1 (single isomer, unassigned) [Compound 95b, N-(benzo[d][1,3]dioxol-5-yl(pyridin-2-yl)methyl)-1-(2-(2-fluorophenoxy)ethyl) piperidine-4-carboxamide] | 100 to 1000 | 100 to 1000 | > 30000 | 1000 to 10000 | m12% | 
9 |  |  | c1ccc(OCCN2CCC(CNC(c3ccc4c(c3)OCO4)c3ccccn3)CC2)cc1 (single isomer, unassigned) [Compound 102b, 1-(benzo[d][1,3]dioxol-5-yl)-N-((1-(2-phenoxyethyl)piperidin-4-yl)methyl)-1-(pyridin-2-yl)methanamine] |  |  | > 30000 | 1000 to 10000 |  | IC50 (human D2R/β-arrestin [1]; [10]): 1000 to 10000 nM; IC50 (human D2R/β-arrestin [2]; [10]): 1000 to 10000 nM
10 | < 100 | < 100 | Clc1ccc(C(NCC2CCN(CCOc3ccccc3)CC2)c2ccccn2)cc1 (single isomer, unassigned) [Compound 114a, 1-(4-chlorophenyl)-N-((1-(2-phenoxyethyl)piperidin-4-yl)methyl)-1-(pyridin-2-yl)methanamine] |  |  | > 30000 | 100 to 1000 |  | Ki (D2): 100 to 1000 nM
11 |  |  | O=C(NC(c1cccc(OC(F)(F)F)c1)c1ccccn1)C1CCN(CCOc2ccccc2)CC1 (single isomer, unassigned) [Compound 118a, 1-(2-phenoxyethyl)-N-(pyridin-2-yl(3-(trifluoromethoxy)phenyl)methyl) piperidine-4-carboxamide] | 10000 to 30000 | > 30000 | > 30000 | 10000 to 30000 |  | 
12 |  |  | O=C(NC(c1cccc(OC(F)(F)F)c1)c1ccccn1)C1CCN(CCOc2ccccc2)CC1 (single isomer, unassigned) [Compound 118b, 1-(2-phenoxyethyl)-N-(pyridin-2-yl(3-(trifluoromethoxy)phenyl)methyl) piperidine-4-carboxamide] | 1000 to 10000 | > 30000 | > 30000 | 1000 to 10000 | m35% | 
13 |  |  | O=C(NC(c1ccc2c(c1)OC(F)(F)O2)c1ccccn1)C1CCN(CCOc2ccccc2)CC1 (single isomer, unassigned) [Compound 119a] | 1000 to 10000 | 1000 to 10000 | > 30000 | > 30000 |  | 
14 | > 30000 | 10000 to 30000 | O=C(NC(c1ccc(Cl)cc1)c1ccccn1)C1CCN(CCOc2ccc(C(F)(F)F)cc2)CC1 (stereo not drawn) [Compound 8, N-((4-chlorophenyl)(pyridin-2-yl)methyl)-1-(2-(4-(trifluoromethyl)phenoxy)ethyl) piperidine-4-carboxamide] |  |  | > 30000 | 10000 to 30000 | 53% | Microsomal Stability: % remaining after 60 minutes [8]: 100%; Plasma Stability: % remaining after 5 hours (Plasma stability, rat): 98.1%; Plasma Stability: % remaining after 5 hours (Plasma stability, mouse): 100%; Plasma Stability: % remaining after 5 hours (Plasma stability, human): 100%; solubility (Solubility in PBS): 1.1 µM (≈ 0.57 µg/mL); Microsomal Stability: % remaining after 60 minutes [9]: 82%
15 | > 30000 | 10000 to 30000 | O=C(NC(c1ccc(Cl)cc1)c1ccccn1)C1CCN(CCOc2cccnc2)CC1 (stereo not drawn) [Compound 10] |  |  | > 30000 | 100 to 1000 | 44% | Microsomal Stability: % remaining after 60 minutes [8]: 57%; solubility (Solubility in PBS): > 500 µM; Microsomal Stability: % remaining after 60 minutes [9]: 75%
16 |  |  | O=C(NC(c1cccc(F)c1)c1ccccn1)C1CCN(CCOc2ccccc2)CC1 (stereo not drawn) [Compound 27] | 1000 to 10000 | > 30000 | > 30000 | 100 to 1000 |  | 
17 |  |  | COc1cccc(C(NC(=O)C2CCN(CCOc3ccccc3)CC2)c2ccccn2)c1 (stereo not drawn) [Compound 35a] | 10000 to 30000 | 10000 to 30000 | > 30000 | 10000 to 30000 |  | 
18 | 1000 to 10000 | < 100 | CN(CC1CCN(CCOc2ccccc2F)CC1)C(c1ccc(Cl)cc1)c1ccccn1 (stereo not drawn) [Compound 72, 1-(4-chlorophenyl)-N-((1-(2-(2-fluorophenoxy)ethyl)piperidin-4-yl)methyl)-N-methyl-1-(pyridin-2-yl)methanamine] |  |  | > 30000 | < 100 |  | Ki (D2): < 100 nM
19 | 100 to 1000 | 100 to 1000 | COc1cccc(C(NCC2CCN(CCOc3ccccc3F)CC2)c2ccccn2)c1 (stereo not drawn) [Compound 88, N-((1-(2-(2-fluorophenoxy)ethyl)piperidin-4-yl)methyl)-1-(3-methoxyphenyl)-1-(pyridin-2-yl)methanamine] |  |  | > 30000 | < 100 | m1% | solubility (Solubility in PBS): 461 µM (≈ 207 µg/mL)
20 |  |  | CC(C)N(CC1CCN(CCOc2ccccc2)CC1)C(c1ccc(Cl)cc1)c1ccccn1 (stereo not drawn) [Compound 103, N-((4-chlorophenyl)(pyridin-2-yl)methyl)-N-((1-(2-phenoxyethyl)piperidin-4-yl)methyl)propan-2-amine] |  |  | > 30000 | < 100 | m1% | Plasma Stability: % remaining after 5 hours (Plasma stability, mouse): m97%; IC50 (human D2R/β-arrestin [6]): > 30000 nM; IC50 (human D2R/β-arrestin [7]): < 100 nM
21 | < 100 | < 100 | COc1ccccc1OCCN1CCC(C(=O)NC(c2ccc(Cl)cc2)c2ccccn2)CC1 (stereo not drawn) [Compound 109, N-((4-chlorophenyl) (pyridin-2-yl)methyl)-1-(2-(2-methoxyphenoxy)ethyl)piperidine-4-carboxamide] |  |  | > 30000 | > 30000 | 40% | Microsomal Stability: % remaining after 60 minutes [8]: 57%; solubility (Solubility in PBS): > 500 µM; Microsomal Stability: % remaining after 60 minutes [9]: 59%
